Earlier results on 1 substance are cited in US20090186826A1, “Cosmetic or dermopharmaceutical compositions of ceramides and polypeptides” (SEDERMA, priority 2003, published 2009).

The series has as its system fibroblasts. Particulars: reported by Senior et al. J. Cell Biol. 99, 870-874, 1984.

Where no end group is shown, it is not given here.

For the substance “VGVAPG [fragment of the protein called elastin]”, the chemotactic activity entry is reported as “chemotactic activity”.
